Tests used:
Experiment in all cases: relative viability (nuclei count vs DMSO), 5 days (fraction); higher = more cells survive
[1] = compound: CCN1C(=O)C2=CC(=C(N=C2N(C1=O)C3CC3)N)C(=O)N + CS(=O)(=O)CCNCc1ccc(-c2ccc3ncnc(Nc4ccc(OCc5cccc(F)c5)c(Cl)c4)c3c2)o1 [Lapatinib] (partner 2 µM)
In short: (§1)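 For relative viability, nuclei counts in treated wells were divided by those in vehicle wells. Lung cancer cell lines had been pin-tool dosed in 1536-well plates the day after seeding and cultured for 5 days, then fixed and stained in one step (final 0.05% Triton X-100, 1% formaldehyde, 1 ug/ml Hoechst) and imaged at 4×. Doses were one drug alone or a fixed anchor-drug dose plus five library-drug doses (not always all listed) in √10 steps, and values are duplicate-plate medians.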

[2] = compound: CCN1C(=O)C2=CC(=C(N=C2N(C1=O)C3CC3)N)C(=O)N + CC(=O)Nc1cccc(-n2c(=O)n(C3CC3)c(=O)c3c(Nc4ccc(I)cc4F)n(C)c(=O)c(C)c32)c1 [Trametinib] (partner 0.02 µM)
In short: as §1

[3] = compound: CCN1C(=O)C2=CC(=C(N=C2N(C1=O)C3CC3)N)C(=O)N + COc1cc2c(Oc3ccc(NC(=O)C4(C(=O)Nc5ccc(F)cc5)CC4)cc3F)ccnc2cc1OCCCN1CCOCC1 [Foretinib] (partner 0.25 µM)
In short: as §1

[4] = compound: CCN1C(=O)C2=CC(=C(N=C2N(C1=O)C3CC3)N)C(=O)N + CC1(C)CCC(c2ccc(Cl)cc2)=C(CN2CCN(c3ccc(C(=O)NS(=O)(=O)c4ccc(N[C@H](CCN5CCOCC5)CSc5ccccc5)c(S(=O)(=O)C(F)(F)F)c4)cc3)CC2)C1 [Navitoclax] (partner 0.5 µM)
In short: as §1

[5] = compound: CCN1C(=O)C2=CC(=C(N=C2N(C1=O)C3CC3)N)C(=O)N + Cc1nc(Nc2ncc(C(=O)Nc3c(C)cccc3Cl)s2)cc(N2CCN(CCO)CC2)n1 [Dasatinib] (partner 0.075 µM)
In short: as §1

Cell Line | relative viability ([1]; first compound 0.253 µM) | relative viability ([1]; first compound 0.8 µM) | relative viability ([1]; first compound 2.53 µM) | relative viability ([1]; first compound 8 µM) | relative viability ([2]; first compound 0.253 µM) | relative viability ([2]; first compound 0.8 µM) | relative viability ([2]; first compound 2.53 µM) | relative viability ([2]; first compound 8 µM) | relative viability ([3]; first compound 0.253 µM) | relative viability ([3]; first compound 0.8 µM) | relative viability ([3]; first compound 2.53 µM) | relative viability ([3]; first compound 8 µM) | relative viability ([4]; first compound 0.253 µM) | relative viability ([4]; first compound 0.8 µM) | relative viability ([4]; first compound 2.53 µM) | relative viability ([4]; first compound 8 µM) | relative viability ([5]; first compound 0.253 µM) | relative viability ([5]; first compound 0.8 µM) | relative viability ([5]; first compound 2.53 µM) | relative viability ([5]; first compound 8 µM)
NCI-H2023 | 0.51 | 0.813 | 0.777 | 0.776 | 0.587 | 0.61 | 0.503 | 0.589 | 0.756 | 0.743 | 0.845 | 0.848 | 0.946 | 1.02 | 0.955 | 0.95 | 0.629 | 0.478 | 0.546 | 0.55
NCI-H2085 | 0.721 | 0.782 | 0.743 | 0.68 | 0.588 | 0.538 | 0.52 | 0.428 | 0.992 | 0.874 | 0.834 | 0.947 | 1.15 | 1.1 | 1.2 | 0.997 | 0.224 | 0.259 | 0.227 | 0.23
NCI-H2087 | 0.811 | 1.14 | 1.21 | 0.872 | 0.228 | 0.184 | 0.217 | 0.193 | 1.04 | 1.25 | 1.08 | 1.12 | 0.94 | 1.11 | 0.994 | 0.941 | 0.746 | 0.829 | 0.818 | 0.753
NCI-H2126 | 0.787 | 0.778 | 0.761 | 0.749 | 0.574 | 0.583 | 0.56 | 0.554 | 1.34 | 0.76 | 1.09 | 1.12 | 0.86 | 0.884 | 0.736 | 0.775 | 0.632 | 0.55 | 0.596 | 0.52
NCI-H2170 | 0.253 | 0.257 | 0.263 | 0.255 | 0.866 | 0.817 | 0.891 | 1.01 | 1.02 | 1 | 0.954 | 0.989 | 0.576 | 0.544 | 0.608 | 0.595 | 0.518 | 0.549 | 0.596 | 0.522
NCI-H2228 | 0.893 | 1.1 | 1.26 | 1.26 | 0.37 | 0.597 | 0.359 | 0.594 | 0.95 | 0.982 | 0.82 | 0.839 | 0.996 | 1.29 | 0.925 | 0.838 | 0.505 | 0.467 | 0.508 | 0.55
NCI-H2347 | 0.94 | 1.01 | 0.985 | 0.937 | 0.183 | 0.299 | 0.307 | 0.307 | 0.797 | 1.09 | 1.43 | 1.09 | 0.816 | 0.871 | 0.801 | 0.749 | 0.294 | 0.307 | 0.161 | 0.323
NCI-H2405 | 1.21 | 1.16 | 1.08 | 1.01 | 0.689 | – | 0.661 | 0.602 | 1.04 | 1.05 | 1.07 | 1.06 | 1.13 | 0.882 | 1.01 | 1.07 | 0.196 | 0.185 | 0.227 | 0.174
NCI-H3122 | 1 | 1.05 | 0.951 | 1.03 | 0.224 | 0.21 | 0.266 | 0.224 | 1.02 | 0.991 | 0.968 | 0.916 | 1.06 | 1.02 | 1.02 | 1.01 | 0.772 | 0.803 | 0.81 | 0.788
PC-3 [JPC-3] | 0.486 | 0.416 | 0.481 | 0.476 | 0.686 | – | 0.686 | 0.736 | 1.02 | 1.03 | 1 | 0.929 | 0.747 | 0.838 | 0.861 | 0.755 | 1.05 | 1.04 | 1.05 | 0.973
PC-14 | 0.293 | 0.287 | 0.303 | 0.315 | 0.743 | 0.721 | 0.768 | 0.715 | 0.914 | 0.961 | 0.954 | 0.969 | 1.01 | 1.06 | 0.935 | 0.956 | 0.244 | 0.258 | 0.252 | 0.298
RERF-LC-KJ | 0.897 | 0.882 | 0.909 | 0.86 | 0.697 | 0.793 | 0.751 | 0.847 | 0.868 | 0.875 | 0.898 | 0.884 | 1.21 | 0.947 | 0.767 | 0.923 | 0.76 | 0.82 | 0.676 | 0.795
SK-LU-1 | 0.879 | 0.879 | 0.897 | 1.04 | 0.482 | 0.555 | 0.516 | 0.489 | 0.925 | 0.799 | 0.839 | 1 | 0.797 | 0.855 | 0.977 | 0.865 | 0.196 | 0.184 | 0.176 | 0.187
SK-MES-1 | 0.478 | 0.485 | 0.451 | 0.492 | 0.625 | 0.533 | 0.557 | 0.517 | 0.946 | 0.876 | 0.94 | 0.837 | 1.03 | 1.28 | 1.22 | 1.27 | 0.409 | 0.393 | 0.393 | 0.448
SW 1573 | 1.03 | 1.02 | 1.23 | 0.985 | 0.548 | 0.601 | 0.599 | 0.52 | 0.978 | 0.762 | 0.832 | 0.933 | 0.949 | 0.977 | 0.919 | 0.979 | 0.564 | 0.411 | 0.483 | 0.464
UMC-11 | 1.12 | 0.909 | 1 | 0.9 | 0.798 | 0.701 | 0.695 | 0.636 | 1.02 | 1.05 | 1.1 | 1.13 | 0.312 | 0.277 | 0.308 | 0.324 | 0.463 | 0.434 | 0.485 | 0.496
